Consider three compounds from US11452723B2, “Combination dosage form of a mu opioid receptor antagonist and an opioid agent” (THERAVANCE BIOPHARMA R&D IP, LLC, priority 2015, dated 2022).

For data set [1] the following is noted: as described in U.S. Pat. No. 7,943,772; cited from earlier work.
A short description of data set [2]: Excipient compatibility study: chemical stability of films at 40° C./88% RH by HPLC. Format: physicochemical. The settings on record: T = 0; no coating material (ratio N/A). Here is the method: The compatibility of axelopran with four compositions of commercial coating materials was studied as a function of ratio of coating material to axelopran. Mixtures of axelopran sulfate and the materials of Table 15 were dried at 40° C. in weighing boats to form films. Chemical stability of the films stored at accelerated conditions of 40° C. and 88% relative humidity for 2 weeks were analyzed by HPLC.

A further data set has as its target T1, mu opioid receptor (Homo sapiens, UniProt P35372).
T1 construct: host or cells: patients (endogenous peripheral/gastrointestinal receptors)
The settings on record: non-cancer pain patients on a stable opioid regimen; cited from earlier work.

Each structure is given as a SMILES string. Where a name gives a salt, the structure may show the parent alone.

T1 sequence (P35372 whole entry): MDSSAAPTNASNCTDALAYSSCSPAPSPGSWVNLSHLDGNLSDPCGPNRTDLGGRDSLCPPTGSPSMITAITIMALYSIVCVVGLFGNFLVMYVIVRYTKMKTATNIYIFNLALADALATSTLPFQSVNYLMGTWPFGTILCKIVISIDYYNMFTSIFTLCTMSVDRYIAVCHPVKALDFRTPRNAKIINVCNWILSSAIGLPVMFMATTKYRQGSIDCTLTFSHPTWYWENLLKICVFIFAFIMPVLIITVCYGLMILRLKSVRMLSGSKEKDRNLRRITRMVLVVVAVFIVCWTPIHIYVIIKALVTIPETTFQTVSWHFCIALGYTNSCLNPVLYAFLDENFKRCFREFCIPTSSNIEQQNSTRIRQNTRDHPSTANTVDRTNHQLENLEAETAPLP

Consider `NC(=O)c1cccc([C@H]2C[C@H]3CC[C@@H](C2)N3CCN(CC2CCCCC2)C(=O)[C@@H](O)CO)c1` [amorphous axelopran], for which the “stability of solid form (in words)” value in data set [1] is “not sufficiently stable for use in a drug product”.

With `NC(=O)c1cccc([C@H]2C[C@H]3CC[C@@H](C2)N3CCN(CC2CCCCC2)C(=O)[C@@H](O)CO)c1` [axelopran sulfate], the “stability of solid form (in words)” value in data set [1] was “forms a stable crystalline form”.

For `NC(=O)c1cccc([C@H]2C[C@H]3CC[C@@H](C2)N3CCN(CC2CCCCC2)C(=O)[C@@H](O)CO)c1` [axelopran, 3-((1R,3r,5S)-8-(2-((cyclohexylmethyl)((2S)-2,3-dihydroxypropanoyl)amino)ethyl)-8-azabicyclo[3.2.1]octan-3-yl)benzamide], in data set [2], the “Axelopran Assay” value came out at 99.70 % Area. The “amelioration of symptoms of opioid induced constipation (in words)” value at mu opioid receptor is “ameliorate the symptoms of OIC in non-cancer pain patients on a stable opioid regimen without compromising analgesia”.
